According to patent US7803844B2, “Composition for preventing and/or treating bone disease, physiologically functional or health food containing thereof, and pharmaceutical containing thereof as active ingredients” (Erina Co. Inc., priority 2004, dated 2010):
Where two headings read alike, the source gives them in different places.

Experiments:
[1] = tested on: MφRAW264 cells; experiment: Inhibition assay I of the early phase differentiation of osteoclast (TRAP activity); type: cell-based; conditions: for TRAP activity (control %): MφRAW264 cells stimulated by 50 ng/mL ODF/RANKL, honokiol 3-30 μM, magnolol 20-60 μM; for IC50: Osteoclast, 72 h, read-out: IC50, inhibition of MφRAW264 cells to osteoclast by RANKL
Source text: Macrophage RAW264 cell line (RIKEN. cell No. CB0535, herein below, referred to as “MφRAW264”), which may differentiate to osteoclast-like cells, was used in the inhibition assay of the early phase differentiation of osteoclast. α-MEM (Invitrogen Co., Cat. No. 11900-024) including 10% of fetal bovine serum (Asahi Technoglass Co., (IWAKI), Cat. No. IWK-500) was used for cultivating MφRAW264. Osteoclast differentiation factor (ODF/RANKL) was purchased from Pepro Tech Inc., Cat. No. 310-01. Inhibition assay I of the early phase differentiation of osteoclast was performed for evaluating the inhibition level of the bone resorption in vitro, the differentiation assay of osteoclast from MφRAW264 cells in early stage. Results of the osteoclast assay were evaluated by determining tartrate resistant acid phosphatase (TRAP) activity, an early stage differentiation marker, and TRAP staining. By using these two indices, activities of flavones from MφRAW264 cells to osteoclast are quantitatively evaluated. MφRAW264 cells were suspended in a α-MEM supplemented 10% of fetal bovine serum (FBS), which is referred to as “10% FBS-MEM herein below”, and plated at 1×10^5 cells/10 mL in 100 mm φ dishes. Then, the dishes were incubated under the presence of 5% of CO2, at 37° C. for 3 days. After confirmed that the plated cells in the dishes became confluent, the incubation was finished. Subsequently, when the cells became confluent, they were treated by using 0.05% of trypsin and Hank's balanced salt solution containing 0.53 mM of EDTA (0.05% Trypsin-0.53 mM EDTA/HBSS (Invitrogen Co., Cat. No. 25300-054) to scrape them, and then suspended in 10% FBS-MEM to plate 0.4×10^4 cells/0.1 mL per each well of 96-well microplates. Then, the plates were incubated one day under the same condition as described above. Osteoclast differentiation factor (ODF/RANKL) was dissolved in 10% FBS-MEM to prepare 100 ng/mL of solution. Alternatively, a stock solution of honokiol was prepared at the concentration of 10 mM in methanol, and stored at −20° C. […] Equal volume of methanol was solely added into the control wells. Honokiol used in the following experiments were the solutions having each concentration prepared as described above. […] Equal volume of methanol without honokiol was added into the control wells. […] Incubation medium in each well of the 96-well microplate was discarded. […] After drying, tartrate resistant acid phosphatase activity was determined (hereinafter, it is referred to as “TRAP assay”), and staining of cells in the well was performed. […] Thirty minutes later, the reaction was terminated by adding 0.1 mL of 0.1 M NaOH, and released p-nitrophenol was determined by the spectrophotometer (Dainippon Pharmaceutical Co. Ltd.) at wave length 405 nm. […]

[2] = tested on: MφRAW264 cells; experiment: Proliferated cell number counting assay (XTT cell viability)
Method: As a non-RI method for determining cell proliferation and cell viability, color reaction by using XTT was employed. MφRAW264 cells were suspended in 10% FBS-MEM, and plated into the 96-well microplate at 0.4×10^4 cells/0.1 mL; then incubated for 1 day. Subsequently, 10% FBS-MEM solution of osteoclast differentiation factor (ODF/RANKL), 100 ng/mL, was added into 0.1 mL per well at final concentration of RANKL, 50 ng/mL. At the same time, honokiol solution at respective concentration was added into the wells. For the control wells, equal volume of methanol not including honokiol was added.
After 3 days incubation, the proliferated cells were counted by using commercially available Cell Proliferation Kit II (Roche Diagnostics Inc., Cat. No. 1 465 015) to obtain the cell viability. The procedure was carried out according to the instruction manual attached, and brief summaries were as follows.
XTT labeling reagent and electron coupling reagent included in the kit were mixed at the ratio of 50:1, and 50 μL of mixture was added per 0.1 mL of medium in each well; then reacted for 4 hours at 37° C. After the termination of the reaction, absorbance at 492 nm of the wave length was measured by using ELISA plate reader (Dainippon Pharma Co.), wherein the reference wave length was 690 nm.
In the above-mentioned (2-2), the same cell proliferation counting assay II was performed instead of honokiol to magnolol and their concentration used was at the range from 20 to 60 μM.

[3] = tested on: M-CSF dependent cells derived from mice bone marrow cells (BMM); experiment: Inhibition assay II of the early stage differentiation of osteoclast (TRAP activity); type: cell-based, mouse; conditions: for IC50: Bone marrow cell, read-out: IC50, inhibition of differentiation from M-CSF dependent bone marrow cells to osteoclast induced by RANKL; for TRAP activity (control %): 1.5 days, honokiol 3-30 μM, magnolol 20-60 μM
Method: Mouse bone marrow cells were obtained from femurs and shanks of male ddy mice from 6 to 9 week age (Chubu Kagaku Shizai Co. Ltd.)
From 6 to 9 week ages of ddy mice, the femurs and shanks were excised. The bone row cells were extruded from these bones by using a syringe with 22 G×1 and ¼ gauge needle to obtain.
Obtained bone marrow cells were suspended in 10% FBS-MEM supplemented with 100 μg/mL of sodium streptomycin, 100 U/mL of sodium penicillin G, 50 ng/mL of M-CSF, and 1 ng/mL of TGF-β, and then inoculated to each well of the 96-well microplate at the cell concentration of 1×10^6 cells/0.1 mL/well. Then, the plates were incubated under the presence of 5% CO2, at 37° C.
After 3 days incubation, the culture medium was exchanged to that including 50 ng/mL of M-CSF and 50 ng/mL of osteoclast differentiation factor (DF/RANKL), simultaneously honokiol prepared as the same concentration as used in the example 1 was added. The medium of the control group was exchanged that including M-CSF and ODF/RANKL, but no honokiol. The plates were further incubated under the condition of the presence of 5% CO2, at 37° C.
After 1.5 days from the medium exchange, tartrate resistant acid phosphatase activity, the early stage differentiation marker, was measured. Medium in each well was discarded and washed plate with PBS, the cells in the well was fixed for 15 minutes by using 10% HCHO/PBS. Furthermore, the cells were fixed by using ethanol-acetone (1:1) mixture. After fixation, the fixed mixture was discarded and dried at room temperature. After drying, tartrate resistant acid phosphatase (TRAP) of the cells in each well was measured and stained similarly to those in the example 1.
The inhibition assay of the early stage differentiation of osteoclast was carried out similarly to the described above, except honokiol used in the above mentioned (3-2) was substituted to magnolol, and its concentration was from 20 to 60 μM.

[4] = tested on: M-CSF dependent cells derived from mice bone marrow cells (BMM); experiment: Cell proliferation counting assay (XTT) in bone marrow derived cells
Method: Alternatively, the cell proliferation counting assay was performed as the same as that in the example 1, the cell viability was obtained. In FIG. 2A, the cell viability was shown as white columns.

[5] = tested on: MφRAW264 cells; experiment: Actin ring formation assay I; type: cell-based; conditions: 20 μM, 1 day after actin ring formation, MφRAW264 with ODF/RANKL and PD98059
Method: After that, 0.1 mL of the medium including 100 ng/mL of ODF/RANKL and 20 μM PD98059 was added, and further incubated under the same condition (final concentration of RANKL was 50 ng/mL, and that of PD98059 10 μM). In order to promote the differentiation to the activated osteoclast, two days after the addition of ODF/RANKL and PD98059, the medium was exchanged to that including 50 ng/mL of ODF/RANKL as described above; then the plate was incubated until the actin ring, the activated structure of osteoclast, formation was confirmed. After actin ring was formed, honokiol prepared as the same as that prepared in the example 1 was added, and cultured further one day. […] One day after when honokiol was added to culture, TRAP staining of the tartrate resistant acid phosphatase (TRAP) in each well, similarly o those performed.

[6] = tested on: M-CSF dependent cells derived from mice bone marrow cells; experiment: Pit formation assay of mature osteoclast; type: cell-based, mouse; conditions: 10 μM, 1 day, calcium phosphate apatite coated plate
Method: Alternatively, the bone marrow cells were obtained form the shanks and femurs from ddy mice of 6 to 9 week age, similarly to the methods employed in the example 3.
Obtained bone marrow cells were suspended in 10% FBS-MEM including 100 U/mL of sodium penicillin G, 100 μg/mL of streptomycin sulfate, 50 ng/mL of M-CSF, and 1 ng/mL of TGF-β. Then, the suspension was plated at 0.85×10^6 cells/0.1 mL/well into the 16 well multi slide plate (BioCoat Osteologic Bone Cell Culture System; BD Biosciences, Cat. No.: 354609) which was coated by calcium phosphate apatite, and incubated under the presence of 5% CO2, at 37° C.
After three days incubation, the medium was exchanged to that including 50 ng/mL of M-CSF and 100 ng/mL of osteoclast differentiation factor (ODF/RANKL). Subsequently, the plates were incubated under the same condition until the formation of actin ring, the osteoclast activated structure, was confirmed. After the actin ring was formed, honokiol prepared as the same concentration used in the example 1 is added, and incubated further one day. To the control group, the solvent without honokiol was added.
After 1 day incubation from the addition of honokiol, the medium in the well was discarded, and the plate was washed by using phosphate buffered saline (PBS); then, 0.1 mL of 0.1 M NaOH is added to every well to dissolve the cells in it. […]

[7] = tested on: MC3T3-E1 cells; experiment: Cell viability after osteoblast differentiation induction (MTT assay); type: cell-based, mice; conditions: 30 μM, 7 days
Method: As an evaluation method for the effect against the differentiation of osteoblast, MC3T3-E1 cell osteoblast differentiation induction assay was used. In the assay, the activity of alkaline phosphatase (ALP), the early stage differentiation marker enzyme of osteoblast, was determined, and the staining utilizing the activity (ALP staining) was performed. Expression level of osteocalcin, which is the marker of the differentiated osteoblast, was determined by using the EIA kit described above. Furthermore, in order to know the cytotoxicity, the cell viability was determined by using MTT assay. MC3T3-E1 cells were plated into the wells of the 96-well microplate at the concentration of 4×10^3 cells/well, and incubated two days under the presence of 5% of CO2, at 37° C. until cells became confluent in the well. […] The medium was exchanged every 3 or 4 days. In order to determine the cell viability, MC3T3-E1 cells were cultured for 7 days under the condition as described above. After that, MTT reagent was added into the well at the 1/10 volume of the medium in the well, and reacted for 1 hour at 37° C. Then, the medium was removed, and generated formazan was dissolved in DMSO; then its absorbance was measured by using microplate reader at the wave length of 570 nm (reference wave length was 630 nm).

[8] = tested on: MC3T3-E1 cells; experiment: Osteoblast differentiation induction assay, ALP activity; type: cell-based, mice; conditions: 3 to 30 μM, 7 days
Method: As an evaluation method for the effect against the differentiation of osteoblast, MC3T3-E1 cell osteoblast differentiation induction assay was used. In the assay, the activity of alkaline phosphatase (ALP), the early stage differentiation marker enzyme of osteoblast, was determined, and the staining utilizing the activity (ALP staining) was performed. Expression level of osteocalcin, which is the marker of the differentiated osteoblast, was determined by using the EIA kit described above. Furthermore, in order to know the cytotoxicity, the cell viability was determined by using MTT assay. MC3T3-E1 cells were plated into the wells of the 96-well microplate at the concentration of 4×10^3 cells/well, and incubated two days under the presence of 5% of CO2, at 37° C. until cells became confluent in the well. […] The medium was exchanged every 3 or 4 days. ALP activity was determined as follows. At first, MC3T3-E1 cells were cultured for 7 days under the same condition as described above; then the medium was removed, and washed by using PBS. After that cells were fixed by using methanol and the dish was dried. […] The reaction was terminated by adding 100 μL of 0.1 N NaOH, and released p-nitrophenol was determined by measuring absorbance at the wave length of 405 nm, by using the plate reader for obtaining ALP activity. […]

[9] = tested on: MC3T3-E1 cells; experiment: Osteoblast differentiation induction assay, osteocalcin concentration (EIA); type: cell-based, mice; conditions: 3 to 30 μM, 14 days, culture supernatant
Method: As an evaluation method for the effect against the differentiation of osteoblast, MC3T3-E1 cell osteoblast differentiation induction assay was used. In the assay, the activity of alkaline phosphatase (ALP), the early stage differentiation marker enzyme of osteoblast, was determined, and the staining utilizing the activity (ALP staining) was performed. Expression level of osteocalcin, which is the marker of the differentiated osteoblast, was determined by using the EIA kit described above. Furthermore, in order to know the cytotoxicity, the cell viability was determined by using MTT assay. MC3T3-E1 cells were plated into the wells of the 96-well microplate at the concentration of 4×10^3 cells/well, and incubated two days under the presence of 5% of CO2, at 37° C. until cells became confluent in the well. […] The medium was exchanged every 3 or 4 days. In order to determine the concentration of osteocalcin, culture supernatant of MC3T3-E1 cells cultured for 14 days under the above-mentioned conditions was used. Amount of osteocalcin in the culture supernatant was determined according to the procedure written on an instruction manual attached to the EIA kit.

[10] = tested on: acid phosphatase; conditions: cited from earlier work
[11] = mouse bone marrow M-CSF dependent cells, 50 ng/mL RANKL

IC50 ([1]; MφRAW264 cells, RANKL 50 ng/mL, 3 days) [µM] | IC50 [3, 11] [µM] | SMILES | TRAP activity (control %) ([1]; 3 days) | non-specific cytotoxicity to MφRAW264 cells [2] | TRAP activity (control %) [3, 11] | non-specific cytotoxicity (XTT assay) [4] | actin rings (activated structure of osteoclast) [5] | pit formation [6] | cell viability of MC3T3-E1 cells [7] | ALP activity [8] | expression level of osteocalcin [9] | inhibition activity of acid phosphatase [10] | IC50 [1] [µM] | cell viability (ratio against control wells = 100) ([2]; MφRAW264 cells, XTT, 3 days, honokiol 3-30 μM, magnolol 20-60 μM) | non-specific cytotoxicity to MφRAW264 cells ([2]; XTT, 3 days) | IC50 ([3]; Mus musculus) [µM] | non-specific cytotoxicity (XTT assay) ([4]; mouse bone marrow M-CSF dependent cells)
15 | 10 | C=CCc1ccc(O)c(-c2ccc(O)c(CC=C)c2)c1 [honokiol] | dose-dependently inhibited | does not show non-specific cytotoxicity | inhibited, depending on the dose | did not show non-specific cytotoxicity | destructed | significantly decreased | slightly decreased | enhanced in dose dependent manner | enhanced | has the inhibition activity of the acid phosphatase |  |  |  |  | 
 |  | C=CCc1ccc(O)c(-c2cc(CC=C)ccc2O)c1 [magnolol] | dose-dependently inhibited |  | dose-dependently inhibited |  |  |  |  |  |  | has the inhibition activity of the acid phosphatase | 30 | seldom decreased | does not show non-specific cytotoxicity | 30 | did not show the non-specific cytotoxicity
